# Patent US10392366B2, “Azetidine compounds as GPR119 modulators for the treatment of diabetes, obesity, dyslipidemia and related disorders” (SANOFI, priority 2017, dated 2019)
# Target: T1, human GPR119 (Homo sapiens, UniProt Q8TDV5)
# T1 construct: expressed in transfected cells
# T1 sequence (Q8TDV5 1-335): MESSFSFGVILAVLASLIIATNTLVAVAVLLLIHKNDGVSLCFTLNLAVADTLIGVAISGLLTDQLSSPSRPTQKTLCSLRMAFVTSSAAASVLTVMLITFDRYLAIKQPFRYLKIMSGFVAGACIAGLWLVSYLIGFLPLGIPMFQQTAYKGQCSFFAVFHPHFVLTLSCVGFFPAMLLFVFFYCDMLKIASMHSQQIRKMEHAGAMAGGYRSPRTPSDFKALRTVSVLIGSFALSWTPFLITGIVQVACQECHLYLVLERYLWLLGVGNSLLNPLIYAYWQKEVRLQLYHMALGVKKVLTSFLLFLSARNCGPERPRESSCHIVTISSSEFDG
# Assay: Functional cellular assay measuring GPR119-mediated cAMP release (HTRF) in HEK-293 cells stably expressing recombinant GPR119
# Format: cell-based
# Conditions: cell line expressing human GPR119, 30 minutes at room temperature
# Procedure: Functional Cellular Assays Measuring GPR119-mediated cAMP Release
# Compounds of the present disclosure, which are agonists of GPR119, were characterized by functional assays measuring the cAMP response of HEK-293 cell lines stably expressing recombinant GPR119 from man, mouse or rat, or by using the hamster cell line HIT-T15 expressing GPR119 endogenously. The cAMP content was determined using a kit based on homogenous time-resolved fluorescence (HTRF) from Cisbio Corp. (cat. no. 62AM4PEC). For preparation, cells were split into T175 culture flasks and grown to near confluency in medium (DMEM/10% FCS for HEK-293 cells, and F-12K medium/10% horse serum/2.5% FCS for HIT-T15 cells, respectively). Medium was then removed and cells washed with PBS lacking calcium and magnesium ions, followed by proteinase treatment with accutase (Sigma-Aldrich, cat. no. A6964). Detached cells were washed and resuspended in assay buffer (1×HBSS; 20 mM HEPES, 0.1% BSA, 2 mM IBMX) and cellular density determined. They were then diluted to 400000 cells/mL and 25 μL-aliquots dispensed to the wells of 96-well plates. For measurement, 25 μL of test compound in assay buffer was added and incubated for 30 minutes at room temperature. After addition of HTRF reagents diluted in lysis buffer, the plates were incubated for 1 hour, followed by measuring the fluorescence ratio at 665 vs. 620 nm. Potency of the agonists was quantified by determining the concentrations that caused 50% of the maximal response/activation (EC50). See Table 6 for exemplary data obtained using the cell line expressing human GPR119.
row,SMILES,EC50
1,CN(C)C(=O)C1CN(c2ncc(N3CC[C@@H](Oc4ccc(OCC(F)(F)F)nc4)C3=O)cc2C#N)C1 [Compound 1-09],0.064 µM
2,CN(C)C(=O)OC1CN(c2ncc(N3CC[C@@H](Oc4ccc(OCC(F)(F)F)nc4)C3=O)cn2)C1 [Compound 5-02],1.03 µM
3,NC1CN(c2ncc(N3CC[C@@H](Oc4ccc(OCC(F)(F)F)nc4)C3=O)cn2)C1 [Compound 1-38],9.84 µM
4,O=C(NCCO)C1CN(c2ncc(N3CC[C@@H](Oc4ccc(Oc5ccc(F)cc5)nc4)C3=O)cn2)C1 [Compound 4-12],5.75 µM
5,CN(C)C(=O)C1CN(c2ncc(N3CC(C)(C)C(Oc4ccc(C(=O)C5CC5)nc4)C3=O)cn2)C1 (centres unmarked) [Compound 1-49],1.36 µM
6,CC(=O)NC1CN(c2ncc(N3CC[C@@H](Oc4ccc(OCC(F)(F)F)nc4)C3=O)cn2)C1 [Compound 4-24],1.35 µM
7,CN(C(=O)C1CN(c2ncc(N3CC[C@@H](Oc4ccc(OCC(F)(F)F)nc4)C3=O)cn2)C1)C1CC1 [Compound 4-19],0.085 µM
8,O=C1[C@H](Oc2ccc(OCC(F)(F)F)nc2)CCN1c1cnc(N2CC(N3CCCC3=O)C2)nc1 [Compound 1-34],0.369 µM
9,CNCCOC(=O)C1CN(c2ncc(N3CC[C@@H](Oc4ccc(OCC(F)(F)F)nc4)C3=O)cn2)C1 [Compound 4-16],0.213 µM
10,Cc1cnc(-c2ccc(O[C@@H]3CCN(c4cnc(N5CC(C(=O)N(C)C)C5)nc4)C3=O)cn2)s1 [Compound 2-05],0.116 µM
11,CCNC(=O)C1CN(c2ncc(N3CC[C@@H](Oc4ccc(OCC(F)(F)F)nc4)C3=O)cn2)C1 [Compound 4-13],0.244 µM
12,CN(C)C(=O)C1CN(c2ncc(N3CC[C@@H](Oc4ccc(C(=O)CCC(F)(F)F)cc4)C3=O)cn2)C1 [Compound 2-09],0.123 µM
13,O=C1[C@H](Oc2ccc(OCC(F)(F)F)nc2)CCN1c1cnc(N2CC(n3cn[nH]c3=O)C2)nc1 [Compound 5-03],0.663 µM
14,C[S+]([O-])C1CN(c2ncc(N3CC[C@@H](Oc4ccc(Oc5ccc(F)cc5)nc4)C3=O)cn2)C1 (some centres unmarked) [Compound 1-14],2.07 µM
15,CN(C)C(=O)C1CN(c2ncc(N3CC[C@@H](Oc4ccc(OCC(F)(F)F)cc4)C3=O)cn2)C1 [Compound 1-53],0.351 µM
16,NC(=O)C1CN(c2ncc(N3CC[C@@H](Oc4ccc(OCC(F)(F)F)nc4)C3=O)cn2)C1 [Compound 4-21],0.245 µM
17,O=C(O)C1CN(c2ncc(N3CC[C@@H](Oc4ccc(OCC5CC5)nc4)C3=O)cn2)C1 [Compound 3-01],4.92 µM
18,N#Cc1cc(N2CC[C@@H](Oc3ccc(Oc4ccc(F)cc4)nc3)C2=O)cnc1N1CC(O)C1 [Compound 1-03],0.255 µM
19,CN(C)C(=O)C1CN(c2ncc(N3CC[C@@H](Oc4ccc(C(=O)c5ccc(F)cc5)nc4)C3=O)cn2)C1 [Compound 2-06],0.145 µM

row,SMILES,EC50
1,"C[S+]([O-])C1CN(c2ncc(N3CCC(Cc4ccc(OCC(F)(F)F)nc4)C3=O)cn2)C1 (single isomer, unassigned) [Compound 1-47]",1.63 µM
2,"CC(C)[S+]([O-])C1CN(c2ncc(N3CC[C@@H](Oc4ccc(OCC(F)(F)F)nc4)C3=O)cn2)C1 (single isomer, unassigned) [Compound 1-35]",0.181 µM
3,COC(=O)C1CN(c2ccc(N3CC[C@@H](Oc4ccc(OCC5CC5)nc4)C3=O)cn2)C1 [Compound 1-07],0.03 µM
4,CC(C)[S+]([O-])C1CN(c2ncc(N3CC[C@@H](Oc4ccc(OCC(F)(F)F)nc4)C3=O)cn2)C1 (some centres unmarked) [Compound 1-51],0.093 µM
5,CCN(CC)C(=O)C1CN(c2ncc(N3CC[C@@H](Oc4ccc(Oc5ccc(F)cc5)nc4)C3=O)cn2)C1 [Compound 4-07],0.283 µM
6,"CS(=O)(=O)C1CN(c2ncc(N3CCC(Cc4ccc(OCC(F)(F)F)nc4)C3=O)cn2)C1 (single isomer, unassigned) [Compound 1-43]",0.116 µM
7,CN(CCO)C(=O)C1CN(c2ncc(N3CC[C@@H](Oc4ccc(OCC(F)(F)F)nc4)C3=O)cn2)C1 [Compound 4-17],0.261 µM
8,CN(C)C(=O)C1CN(c2ncc(N3CC[C@@H](Oc4ccc(Oc5ccc(F)cc5)nc4)C3=O)cn2)C1 [Compound 1-23],0.189 µM
9,CN(C)C(=O)C1CN(c2ncc(N3CC(C)(C)C(Oc4ccc(C(=O)C5CC5)cc4)C3=O)cn2)C1 (centres unmarked) [Compound 1-48],0.752 µM
10,CC(C)N(C)C(=O)C1CN(c2ncc(N3CC[C@@H](Oc4ccc(OCC(F)(F)F)nc4)C3=O)cn2)C1 [Compound 4-20],0.082 µM
11,CS(=O)(=O)C1CN(c2ncc(N3CC[C@@H](Oc4ccc(C(=O)C5CC5)nc4)C3=O)cn2)C1 [Compound 1-33],0.664 µM
12,CNC(=O)C1CN(c2ncc(N3CC[C@@H](Oc4ccc(Oc5ccc(F)cc5)nc4)C3=O)cn2)C1 [Compound 4-01],2.06 µM
13,CN(C)C(=O)C1CN(c2ncc(N3CC[C@@H](Oc4ccc(C(=O)C5CC5(F)F)cc4)C3=O)cn2)C1 (some centres unmarked) [Compound 2-10],0.213 µM
14,CN(C)C(=O)C1CN(c2ncc(N3CC[C@@H](Oc4ccc(Oc5ccc(F)cc5)nc4)C3=O)cc2C#N)C1 [Compound 1-08],0.092 µM
15,NC(=O)CNC(=O)C1CN(c2ncc(N3CC[C@@H](Oc4ccc(Oc5ccc(F)cc5)nc4)C3=O)cn2)C1 [Compound 4-02],6.71 µM
16,CN(C)C(=O)C1CN(c2ncc(N3CC[C@@H](Oc4ccc(C(=O)C5CC(F)(F)C5)cc4)C3=O)cn2)C1 [Compound 2-08],0.223 µM
17,CN(C)C(=O)C1CN(c2ncc(N3CC[C@@H](Oc4ccc(C(=O)C5CC(F)(F)C5)nc4)C3=O)cn2)C1 [Compound 2-11],0.47 µM
18,CN(CO)C(=O)C1CN(c2ccc(N3CC[C@@H](Oc4ccc(OCC(F)(F)F)nc4)C3=O)cn2)C1 [Compound 5-05],0.067 µM
19,C[S+]([O-])C1CN(c2ncc(N3CC[C@@H](Oc4ccc(OCC(F)(F)F)nc4)C3=O)cn2)C1 (some centres unmarked) [Compound 1-15],0.248 µM

row,SMILES,EC50
1,CN(C)C(=O)C1CN(c2ncc(N3CC[C@@H](Oc4ccc(OCC(F)(F)F)nc4)C3=O)cn2)C1 [Compound 1-12],0.05 µM
2,[2H]C([2H])([2H])N(C(=O)C1CN(c2ncc(N3CC[C@@H](Oc4ccc(OCC(F)(F)F)nc4)C3=O)cn2)C1)C([2H])([2H])[2H] [Compound 4-27],0.122 µM
3,O=C(C1CN(c2ncc(N3CC[C@@H](Oc4ccc(OCC(F)(F)F)nc4)C3=O)cn2)C1)N1CCC1 [Compound 4-22],0.116 µM
4,CN(C)C(=O)C1CN(c2ccc(N3CC[C@@H](Oc4ccc(OCC(F)(F)F)nc4)C3=O)cn2)C1 [Compound 1-10],0.044 µM
5,CS(=O)(=O)C1CN(c2ncc(N3CC[C@@H](Oc4ccc(Oc5ccc(F)cc5)nc4)C3=O)cn2)C1 [Compound 1-18],0.343 µM
6,"C[S+]([O-])C1CN(c2ncc(N3CC[C@@H](Oc4ccc(C(=O)C5CC5)cc4)C3=O)cn2)C1 (single isomer, unassigned) [Compound 1-21]",0.991 µM
7,NC(=O)C1CN(c2ncc(N3CC[C@@H](Oc4ccc(Oc5ccc(F)cc5)nc4)C3=O)cn2)C1 [Compound 4-04],5.88 µM
8,CS(=O)(=O)C1CN(c2ncc(N3CCC(Cc4ccc(C(=O)C5CC5)cc4)C3=O)cn2)C1 (centres unmarked) [Compound 1-32],0.195 µM
9,CN(C)C(=O)C1CN(c2ccc(N3CC[C@H](Oc4ccc(OCC(F)(F)F)nc4)C3=O)cn2)C1 [Compound 1-11],0.421 µM
10,CCNC(=O)C1CN(c2ncc(N3CC[C@@H](Oc4ccc(Oc5ccc(F)cc5)nc4)C3=O)cn2)C1 [Compound 4-03],4.04 µM
11,"CC(C)[S+]([O-])C1CN(c2ncc(N3CC[C@@H](Oc4ccc(OCC(F)(F)F)nc4)C3=O)cn2)C1 (single isomer, unassigned) [Compound 1-36]",0.158 µM
12,CS(=O)(=O)C1CN(c2ncc(N3CC[C@@H](Oc4ccc(C(=O)C5CC5)c(F)c4)C3=O)cn2)C1 [Compound 1-39],0.179 µM
13,"C[S+]([O-])C1CN(c2ncc(N3CC[C@@H](Oc4ccc(OCC(F)(F)F)nc4)C3=O)cn2)C1 (single isomer, unassigned) [Compound 1-25]",0.292 µM
14,CN(C)C(=O)C1CN(c2ncc(N3CC[C@@H](Oc4ccc(C(=O)c5ccc(F)cc5)cc4)C3=O)cn2)C1 [Compound 2-02],0.137 µM
15,CN(C)C(=O)CC1CN(c2ncc(N3CC[C@@H](Oc4ccc(OCC(F)(F)F)nc4)C3=O)cn2)C1 [Compound 1-54],1.66 µM
16,"C[S+]([O-])C1CN(c2ncc(N3CC[C@@H](Oc4ccc(OCC(F)(F)F)nc4)C3=O)cn2)C1 (single isomer, unassigned) [Compound 1-24]",0.335 µM
17,O=C(C1CN(c2ncc(N3CC[C@@H](Oc4ccc(Oc5ccc(F)cc5)nc4)C3=O)cn2)C1)N1CC(O)C1 [Compound 4-11],0.915 µM
18,COC(=O)C1CN(c2ccc(N3CC[C@@H](Oc4ccc(OCC(F)(F)F)nc4)C3=O)cn2)C1 [Compound 1-52],0.012 µM
